Molecular target: SHP2 (Homo sapiens (Human), UniProt Q06124)
Assay: SHP2 allosteric inhibition assay (DiFMUP prompt fluorescence)
Format: biochemical
Conditions: 0.2 nM SHP2 activated with 0.5 μM Activating Peptide 1 or 2, substrate DiFMUP
Description: Without wishing to be bound by theory, SHP2 is allosterically activated through binding of bis-tyrosyl-phosphorylated peptides to its Src Homology 2 (SH2) domains. The latter activation step leads to the release of the auto-inhibitory interface of SHP2, which in turn renders the SHP2 protein tyrosine phosphatase (PTP) active and available for substrate recognition and reaction catalysis. The catalytic activity of SHP2 was monitored using the surrogate substrate DiFMUP in a prompt fluorescence assay format.
The phosphatase reactions were performed at room temperature in 96-well black polystyrene plate, flat bottom, non-binding surface (Corning, Cat #3650) using a final reaction volume of 100 μL and the following assay buffer conditions: 50 mM HEPES, pH 7.2, 100 mM NaCl, 0.5 mM EDTA, 0.05% P-20, 1 mM DTT.
The inhibition of SHP2 by compounds of the invention (concentrations varying from 0.00005-10 μM) was monitored using an assay in which 0.2 nM of SHP2 was incubated with 0.5 μM of Activating Peptide 1 (sequence: H2N-LN(pY)IDLDLV(dPEG8)LST(pY)ASINFQK-amide) or Activating Peptide 2 (sequence: H2N-LN(pY)AQLWHA(dPEG8)LTI(pY)ATIRRF-amide). After 30-60-minutes incubation at 25° C., the surrogate substrate DiFMUP (Invitrogen, Cat #D6567) was added to the reaction and activity was determined by a kinetic read using a microplate reader (Envision, Perkin-Elmer or Spectramax M5, Molecular Devices). The excitation and emission wavelengths were 340 nm and 450 nm, respectively. Initial rates were determined from a linear fit of the data, and the inhibitor dose response curves were analyzed using normalized IC50 regression curve fitting with control based normalization.

Row | SMILES | IC50 (Table 2, class symbols) [nM] | IC50 (Table 1) [nM]
1 | Cc1nc(N2CCC3(CC2)CO[C@@H](C)[C@H]3N)n2ccnc2c1-c1cccc(Cl)c1Cl [Compound 8, (3S,4S)-8-[8-(2,3-dichlorophenyl)-7-methylimidazo[1,2-c]pyrimidin-5-yl]-3-methyl-2-oxa-8-azaspiro[4.5]decan-4-amine] | ≤ 50 | –
2 | CC1(N)CCN(c2ncc(-c3cccc(Cl)c3Cl)c3nccn23)CC1 [Compound 3, 1-[8-(2,3-dichlorophenyl)imidazo[1,2-c]pyrimidin-5-yl]-4-methylpiperidin-4-amine] | > 500 | –
3 | C[C@@H]1OCC2(CCN(c3ncc(Sc4ccnc5nc[nH]c45)c4nccn34)CC2)[C@@H]1N [Compound 17, (3S,4S)-8-(8-{1H-imidazo[4,5-b]pyridin-7-ylsulfanyl}imidazo[1,2-c]pyrimidin-5-yl)-3-methyl-2-oxa-8-azaspiro[4.5]decan-4-amine] | ≤ 50 | –
4 | C[C@@H]1OCC2(CCN(c3ncc(Sc4ccnc(N)c4Cl)c4ncnn34)CC2)[C@@H]1N [Compound 4, (3S,4S)-8-{8-[(2-amino-3-chloropyridin-4-yl)sulfanyl]-[1,2,4]triazolo[1,5-c]pyrimidin-5-yl}-3-methyl-2-oxa-8-azaspiro[4.5]decan-4-amine] | ≤ 50 | –
5 | Nc1nccc(Sc2cnc(N3C[C@@H]4[C@@H](N)[C@@H]4C3)n3ccnc23)c1Cl [Compound 25, (1R,5S,6R)-3-{8-[(2-amino-3-chloropyridin-4-yl)sulfanyl]imidazo[1,2-c]pyrimidin-5-yl}-3-azabicyclo[3.1.0]hexan-6-amine] | 50 to 500 | –
6 | Cc1cc(Sc2cnc(N3CCC4(CC3)CO[C@@H](C)[C@H]4N)n3ccnc23)cc(N)n1 [Compound 18, (3S,4S)-8-{8-[(2-amino-6-methylpyridin-4-yl)sulfanyl]imidazo[1,2-c]pyrimidin-5-yl}-3-methyl-2-oxa-8-azaspiro[4.5]decan-4-amine] | 50 to 500 | –
7 | C[C@@H]1OCC2(CCN(c3ncc(Sc4cccc(Cl)c4Cl)c4nccn34)CC2)[C@@H]1N [Compound 11, (3S,4S)-8-{8-[(2,3-dichlorophenyl)sulfanyl]imidazo[1,2-c]pyrimidin-5-yl}-3-methyl-2-oxa-8-azaspiro[4.5]decan-4-amine] | ≤ 50 | –
8 | Nc1nccc(Sc2cnc(N3CCC4(CC3)CNC4)n3ccnc23)c1Cl [Compound 20, 3-chloro-4-[(5-{2,7-diazaspiro[3.5]nonan-7-yl}imidazo[1,2-c]pyrimidin-8-yl)sulfanyl]pyridin-2-amine] | 50 to 500 | –
9 | C[C@@H]1OCC2(CCN(c3ncc(Sc4ccnc(N)c4Cl)c4nccn34)CC2)[C@@H]1N [Compound 1, (3S,4S)-8-{8-[(2-amino-3-chloropyridin-4-yl)sulfanyl]imidazo[1,2-c]pyrimidin-5-yl}-3-methyl-2-oxa-8-azaspiro[4.5]decan-4-amine] | ≤ 50 | –
10 | C[C@@H]1OCC2(CCN(c3ncc(Sc4ccnc(N)c4Cl)c4ncnn34)CC2)[C@@H]1N [Compound 4 (Example 4)] | – | 29
11 | NC[C@H]1CCN(c2ncc(Sc3ccnc(N)c3Cl)c3nccn23)C1 [Compound 24, 4-({5-[(3R)-3-(aminomethyl)pyrrolidin-1-yl]imidazo[1,2-c]pyrimidin-8-yl}sulfanyl)-3-chloropyridin-2-amine] | 50 to 500 | –
12 | C[C@@H]1OCC2(CCN(c3cnc(Sc4ccnc(N)c4Cl)c4nccn34)CC2)[C@@H]1N [Compound 65, (3S,4S)-8-{8-[(2-amino-3-chloropyridin-4-yl)sulfanyl]imidazo[1,2-a]pyrazin-5-yl}-3-methyl-2-oxa-8-azaspiro[4.5]decan-4-amine] | > 500 | –
13 | C[C@@H]1OCC2(CCN(c3ncc(Sc4ccnc(N)c4)c4nccn34)CC2)[C@@H]1N [Compound 16, (3S,4S)-8-{8-[(2-aminopyridin-4-yl)sulfanyl]imidazo[1,2-c]pyrimidin-5-yl}-3-methyl-2-oxa-8-azaspiro[4.5]decan-4-amine] | 50 to 500 | –
14 | Cc1nc(N2CCC3(CC2)CO[C@@H](C)[C@H]3N)n2cnnc2c1-c1cccc(Cl)c1Cl [Compound 6, (3S,4S)-8-[8-(2,3-dichlorophenyl)-7-methyl-[1,2,4]triazolo[4,3-c]pyrimidin-5-yl]-3-methyl-2-oxa-8-azaspiro[4.5]decan-4-amine] | ≤ 50 | –
15 | C[C@@H]1OCC2(CCN(c3ncc(Sc4cccc(C(=O)N(C)C)c4Cl)c4nccn34)CC2)[C@@H]1N [Compound 14, 3-({5-[(3S,4S)-4-amino-3-methyl-2-oxa-8-azaspiro[4.5]decan-8-yl]imidazo[1,2-c]pyrimidin-8-yl}sulfanyl)-2-chloro-N,N-dimethylbenzamide] | 50 to 500 | –
16 | Nc1nccc(Sc2cnc(N3CC4(CC(N)C4)C3)n3ccnc23)c1Cl [Compound 19, 2-{8-[(2-amino-3-chloropyridin-4-yl)sulfanyl]imidazo[1,2-c]pyrimidin-5-yl}-2-azaspiro[3.3]heptan-6-amine] | > 500 | –
17 | Nc1nccc(Sc2cnc(N3CC[C@H](N)C3)n3ccnc23)c1Cl [Compound 21, 4-({5-[(3S)-3-aminopyrrolidin-1-yl]imidazo[1,2-c]pyrimidin-8-yl}sulfanyl)-3-chloropyridin-2-amine] | > 500 | –
18 | NCCC1CN(c2ncc(Sc3ccnc(N)c3Cl)c3nccn23)C1 [Compound 22, 4-({5-[3-(2-aminoethyl)azetidin-1-yl]imidazo[1,2-c]pyrimidin-8-yl}sulfanyl)-3-chloropyridin-2-amine] | > 500 | –

The next lines start with results.

Row | IC50 (Table 2, class symbols) [nM] | SMILES | IC50 (Table 1) [nM]
19 | ≤ 50 | Cc1nc(N2CCC3(CC2)CO[C@@H](C)[C@H]3N)n2ccnc2c1-c1cc(Cl)cc2cc[nH]c12 [Compound 52, (3S,4S)-8-[8-(5-chloro-1H-indol-7-yl)-7-methylimidazo[1,2-c]pyrimidin-5-yl]-3-methyl-2-oxa-8-azaspiro[4.5]decan-4-amine] | –
20 | ≤ 50 | Cc1nc(N2CCC3(CC2)CO[C@@H](C)[C@H]3N)n2ccnc2c1-c1ccc2[nH]ncc2c1 [Compound 39, (3S,4S)-8-[8-(2H-indazol-5-yl)-7-methylimidazo[1,2-c]pyrimidin-5-yl]-3-methyl-2-oxa-8-azaspiro[4.5]decan-4-amine] | –
21 | ≤ 50 | Cc1nc(N2CCC3(CC2)CO[C@@H](C)[C@H]3N)n2ccnc2c1-c1ccc2c(cnn2C)c1 [Compound 34, (3S,4S)-3-methyl-8-[7-methyl-8-(1-methyl-1H-indazol-5-yl)imidazo[1,2-c]pyrimidin-5-yl]-2-oxa-8-azaspiro[4.5]decan-4-amine] | –
22 | ≤ 50 | Cc1nc(N2CCC3(CC2)CO[C@@H](C)[C@H]3N)n2ccnc2c1-c1cccc2cc[nH]c12 [Compound 35, (3S,4S)-8-[8-(1H-indol-7-yl)-7-methylimidazo[1,2-c]pyrimidin-5-yl]-3-methyl-2-oxa-8-azaspiro[4.5]decan-4-amine] | –
23 | ≤ 50 | Cc1nc(N2CCC3(CC2)CO[C@@H](C)[C@H]3N)n2ccnc2c1-c1cc2[nH]ncc2cc1Cl [Compound 38, (3S,4S)-8-[8-(5-chloro-2H-indazol-6-yl)-7-methylimidazo[1,2-c]pyrimidin-5-yl]-3-methyl-2-oxa-8-azaspiro[4.5]decan-4-amine] | –
24 | ≤ 50 | CNC(=O)O[C@H]1C[C@@H](N)C2(CCN(c3nc(C)c(-c4cccc(Cl)c4Cl)c4nccn34)CC2)C1 [Compound 63, (2R,4R)-4-amino-8-[8-(2,3-dichlorophenyl)-7-methylimidazo[1,2-c]pyrimidin-5-yl]-8-azaspiro[4.5]decan-2-yl N-methylcarbamate] | –
25 | ≤ 50 | Cc1nc(N2CCC3(CC2)CO[C@@H](C)[C@H]3N)n2ccnc2c1-c1ccnc2cc[nH]c12 [Compound 53, (3S,4S)-3-methyl-8-(7-methyl-8-{1H-pyrrolo[3,2-b]pyridin-7-yl}imidazo[1,2-c]pyrimidin-5-yl)-2-oxa-8-azaspiro[4.5]decan-4-amine] | –
26 | > 500 | NC(=O)CNc1ncc(Sc2ccnc(N)c2Cl)c2nccn12 [Compound 66, 2-({8-[(2-amino-3-chloropyridin-4-yl)sulfanyl]imidazo[1,2-c]pyrimidin-5-yl}amino)acetamide] | –
27 | > 500 | CC1(O)CCN(c2ncc(Sc3ccnc(N)c3Cl)c3nccn23)CC1 [Compound 79] | –
28 | ≤ 50 | Cc1nc(N2CCC3(CC2)CO[C@@H](C)[C@H]3N)n2ccnc2c1-c1ccc2nccnc2c1Cl [Compound 41, (3S,4S)-8-[8-(5-chloroquinoxalin-6-yl)-7-methylimidazo[1,2-c]pyrimidin-5-yl]-3-methyl-2-oxa-8-azaspiro[4.5]decan-4-amine] | –
29 | > 500 | Nc1nccc(Sc2cnc(N3CC(O)C3)n3ccnc23)c1Cl [Compound 75] | –
30 | ≤ 50 | Cc1nc(N2CCC3(CC2)CO[C@@H](C)[C@H]3N)n2ccnc2c1-c1ccc2c(c1Cl)OCCC2 [Compound 43, (3S,4S)-8-[8-(8-chloro-3,4-dihydro-2H-1-benzopyran-7-yl)-7-methylimidazo[1,2-c]pyrimidin-5-yl]-3-methyl-2-oxa-8-azaspiro[4.5]decan-4-amine] | –
31 | > 500 | C[C@H](O)CNc1ncc(Sc2ccnc(N)c2Cl)c2nccn12 [Compound 74] | –

From US11673901B2, “Polycyclic compounds as allosteric SHP2 inhibitors” (Revolution Medicines, Inc., priority 2017, dated 2023)
